These results are taken from BindingDB's records for patent US20250171431 (Horizon Therapeutics Ireland Dac, 2025).

Chain of Insulin-like growth factor 1 receptor (P08069 31-736 limits assumed): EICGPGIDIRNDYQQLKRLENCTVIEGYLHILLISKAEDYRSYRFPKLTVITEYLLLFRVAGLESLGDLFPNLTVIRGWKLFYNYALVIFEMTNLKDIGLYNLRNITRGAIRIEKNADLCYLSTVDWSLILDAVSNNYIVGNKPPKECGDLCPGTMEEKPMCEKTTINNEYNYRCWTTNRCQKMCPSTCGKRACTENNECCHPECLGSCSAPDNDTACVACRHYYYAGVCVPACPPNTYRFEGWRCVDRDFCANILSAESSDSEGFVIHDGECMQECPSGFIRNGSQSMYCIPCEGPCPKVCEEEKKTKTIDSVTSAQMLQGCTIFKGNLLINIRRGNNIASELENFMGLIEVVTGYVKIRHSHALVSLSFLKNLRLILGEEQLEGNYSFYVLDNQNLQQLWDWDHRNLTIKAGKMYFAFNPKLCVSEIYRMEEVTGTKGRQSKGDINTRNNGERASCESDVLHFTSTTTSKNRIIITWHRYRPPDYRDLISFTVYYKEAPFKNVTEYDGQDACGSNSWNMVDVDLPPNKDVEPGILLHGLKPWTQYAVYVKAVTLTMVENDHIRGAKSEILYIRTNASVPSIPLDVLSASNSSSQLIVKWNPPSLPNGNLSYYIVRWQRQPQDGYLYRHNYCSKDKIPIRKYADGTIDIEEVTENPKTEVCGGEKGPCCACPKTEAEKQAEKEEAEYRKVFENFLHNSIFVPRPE
Chain of Insulin-like growth factor 1 receptor (P08069 741-1367 limits assumed): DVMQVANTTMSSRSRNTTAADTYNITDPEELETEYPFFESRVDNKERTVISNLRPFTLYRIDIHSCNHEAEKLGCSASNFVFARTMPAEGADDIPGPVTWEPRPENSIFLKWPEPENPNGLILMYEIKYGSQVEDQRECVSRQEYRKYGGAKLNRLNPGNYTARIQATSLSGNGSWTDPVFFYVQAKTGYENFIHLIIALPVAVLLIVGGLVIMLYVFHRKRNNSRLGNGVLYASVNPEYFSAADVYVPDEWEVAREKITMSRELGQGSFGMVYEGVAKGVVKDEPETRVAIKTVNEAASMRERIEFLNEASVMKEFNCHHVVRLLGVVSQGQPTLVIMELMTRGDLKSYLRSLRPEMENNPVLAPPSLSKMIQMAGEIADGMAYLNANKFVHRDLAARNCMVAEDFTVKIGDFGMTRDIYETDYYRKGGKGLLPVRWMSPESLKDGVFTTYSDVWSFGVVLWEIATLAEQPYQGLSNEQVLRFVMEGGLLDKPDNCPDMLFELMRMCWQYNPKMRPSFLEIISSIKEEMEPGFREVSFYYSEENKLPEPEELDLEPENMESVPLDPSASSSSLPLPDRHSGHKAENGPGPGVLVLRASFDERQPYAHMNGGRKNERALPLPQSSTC

This assay addresses Insulin-like growth factor 1 receptor (Homo sapiens, UniProt P08069). Kind of assay: Biologic and Pharmacologic Assay. On the procedure: The media was removed and replaced by 50 μL of 1× lysis buffer from the AlphaLISA kit (with 1× of cOmplete™ protease inhibitor). The plates were sealed, and cells were allowed to lyse for 10 min in the shaker before storing the plate at −20° C. until used. The AlphaLISA assay with processed cell lysates were performed as described in the protocol. Briefly, 10 μL of the undiluted sample were loaded to 384 well Optiplates and 5 μL of the acceptor mix (as described in the AlphaLISA kit) was added to each well. The plates were sealed and briefly vortexed followed by the incubation at RT for 3 hours. In the dark, 5 μL of donor mix was added to each well. All plates were sealed and stored at RT overnight. The plates were read in EnVision reader using standard AlphaLISA settings.Compound activity was analyzed using CBIS data analysis suite (ChemInnovation, CA).
As a reminder, the IC50 is the concentration at which inhibition is half-maximal. Read a high IC50 as a need for much substance. On to `COc1cc(Nc2nccc(Nc3cc4c(F)cccc4[nH]c3=O)n2)ccc1O[C@H]1C[C@@H](N(C)C)C1` [US20250171431, Compound 123], for which the IC50 was less than 500 nM.
Next, `COc1cc(Nc2nccc(Nc3cnc4ccc(C#N)cc4c3)n2)ccc1OCCCN1CCCCC1` [US20250171431, Compound 392]: less than 500 nM.
Next, `COc1cc(Nc2nccc(Nc3cc4cccc(F)c4[nH]c3=O)n2)ccc1C1CCNCC1(F)F` (stereo not given) [US20250171431, Compound 208]: less than 500 nM; `COc1cc(Nc2nccc(Nc3cc(F)c4ncc(Br)cc4c3)n2)ccc1O[C@H]1C[C@@H](N(C)C)C1` [US20250171431, Compound 133]: less than 500 nM; `COc1cc(N2CCN(C)CC2)ncc1Nc1nccc(Nc2cc3cccc(F)c3nc2O)n1` [US20250171431, Compound 91]: less than 500 nM.
Next, `COc1cc(Nc2nccc(Nc3cc4cccc(F)c4[nH]c3=O)n2)cnc1N1CCC(N(C)C)CC1` [US20250171431, Compound 164]: less than 500 nM.
In turn, `COc1cc(Nc2nccc(Nc3cnc4c(Cl)cccc4c3)n2)ccc1O[C@H]1C[C@@H](N(C)C)C1` [US20250171431, Compound 344] gave an IC50 of less than 500 nM.
`COc1cc(Nc2nccc(Nc3cnc4c(c3)OC(C)(C)C(=O)N4)n2)ccc1O[C@H]1C[C@@H](N(C)C)C1` [US20250171431, Compound 288] gave an IC50 of 500 to 2000 nM.
`COc1cc(Nc2nccc(Nc3ccc4ncc(Cl)nc4c3)n2)ccc1O[C@H]1C[C@@H](N(C)C)C1` [US20250171431, Compound 134] came in with an IC50 of less than 500 nM.
Next, `COc1cc(Nc2nccc(Nc3cc4ccccc4nc3C#N)n2)cnc1O[C@H]1C[C@@H](N(C)C)C1` [US20250171431, Compound 269]: more than 10000 nM.
The compound `COc1cc(Nc2nccc(Nc3cnc4cncc(F)c4c3)n2)cnc1O[C@H]1C[C@@H](N(C)C)C1` [US20250171431, Compound 88] gave an IC50 of less than 500 nM.
Next, `COc1cc(Nc2nccc(Nc3cnc4cc(Cl)ccc4c3)n2)ccc1OCCCN1CCCCC1` [US20250171431, Compound 428]: less than 500 nM; `COc1cc(Nc2nccc(Nc3cnc4ccc(Cl)cc4c3)n2)cnc1N1CCNC(C(F)F)C1` (stereo not given) [US20250171431, Compound 483]: less than 500 nM.
With `COc1cc(Nc2nccc(Nc3cc4cccc(F)c4nc3O)n2)cnc1O[C@@H]1C[C@H](N(C)C)C1(C)C` [US20250171431, Compound 253], the IC50 was more than 10000 nM.
With `COc1cc(Nc2nccc(Nc3cc4cc(Cl)ccc4[nH]c3=O)n2)ccc1O[C@H]1CC[C@@H](N(C)C)CC1` [US20250171431, Compound 247] the figure was less than 500 nM; with `O=S1(=O)CCN([C@H]2CC[C@@H](Oc3ccc(Nc4nccc(Nc5cnc6ccc(Cl)cc6c5)n4)cc3)CC2)CC1` [US20250171431, Compound 309], less than 500 nM.
`COc1cc(Nc2nccc(Nc3cnc4ccccc4c3)n2)ccc1N1CCC(N(C)C)CC1` [US20250171431, Compound 95] had an IC50 of less than 500 nM.
The compound `COc1cc(Nc2nccc(Nc3ccc(C4CC4)nc3C(N)=O)n2)ccc1O[C@H]1C[C@@H](N(C)C)C1` [US20250171431, Compound 124] gave an IC50 of less than 500 nM.
Next, `COc1cc(C2CCNCC2(F)F)ccc1Nc1nccc(Nc2cc3cccc(F)c3[nH]c2=O)n1` (stereo not given) [US20250171431, Compound 222]: less than 500 nM; `COc1cc(Nc2nccc(Nc3cnc4ccccc4c3)n2)ccc1N1CCC(N2CCCCC2)CC1` [US20250171431, Compound 1]: less than 500 nM.
